Results on 20 molecules are retold here after patent US7723523B2, “Tetrahydropyridothiophenes” (4SC AG, priority 2004, dated 2010).

Molecules are shown by their SMILES.

The test system of experiment [1] is RKO (RKOp27) human colon adenocarcinoma cells. As to the kind of experiment: Alamar Blue cell viability assay, anti-proliferative/cytotoxic activity on proliferating RKOp27 cells. The class given is cell-based. As to conditions: absence of Ponasterone A, 72 hours incubation, read-out: IC50 RKO p27 proliferating. The method, then: The anti-proliferative/cytotoxic activity of the compounds described herein, can be tested on subclones of RKO (RKOp27) human colon adenocarcinoma cells (Schmidt et al., Oncogene 19, 2423-2429; 2000) using the Alamar Blue cell viability assay (described in O'Brien et al. Eur J Biochem 267, 5421-5426, 2000). The compounds are dissolved as 20 mM solutions in dimethylsulfoxide (DMSO) and subsequently diluted in semi-logarithmic steps. DMSO dilutions are further diluted 1:100 into Dulbecco's modified Eagle's medium (DMEM) containing 10% fetal calf serum to a final concentration twice as much as the final concentration in the test. RKO subclones are seeded into 96 well flat bottom plates at a density of 4000 cells per well in a volume of 50 μl per well. 24 hours after seeding 50 μl each of the compound dilutions in DMEM are added into each well of the 96 well plate. Each compound dilution is tested as quadruplicates. Wells containing untreated control cells are filled with 50 μl DMEM containing 1% DMSO. The cells are then incubated with the substances for 72 hours at 37° C. in a humidified atmosphere containing 5% carbon dioxide. To determine the viability of the cells, 10 μl of an Alamar Blue solution (Biosource) are added and the fluorescence is measured at an extinction of 544 nm and an emission of 590 nm. For the calculation of the cell viability the emission value from untreated cells is set as 100% viability and the emission rates of treated cells are set in relation to the values of untreated cells. Viabilities are expressed as % values.
The corresponding IC50 values of the compounds for anti-proliferative/cytotoxic activity are determined from the concentration-effect curves.
Representative IC50 values for anti-proliferation/cytotoxicity determined in the aforementioned assay are described in the table A (1st column), in which the numbers of the compound correspond to the numbers of the examples.
(In general: The colour change of resazurin is a common sign of viable cells or microbes.)

The test system of experiment [2] is RKO colon adenocarcinoma cells (RKOp27) arrested by expression of ectopic p27Kip1. As to the kind of experiment: Alamar Blue cell viability assay on RKOp27 cells arrested by Ponasterone A-induced p27Kip1 (cell cycle specific mode of action). The experiment is classed as cell-based. As to conditions: Homo sapiens, RKOp27, 72 h, cells arrested by p27Kip1 induced with 10 μM Ponasterone A, 72 hours incubation, read-out: IC50 RKO p27 arrested. On the procedure:
To determine the cell cycle specific mode of action, subclones of RKO colon adenocarcinoma cells (RKOp27 or RKOp21 as described by Schmidt et al. in Oncogene 19, 2423-2429; 2000) are seeded into 96 well flat bottom plates at a density of 16000 cells per well in a volume of 50 μl per well in DMEM growth medium with 10% FCS containing 10 μM Ponasterone A. 24 hours after seeding 50 μl each of the compound dilutions in DMEM are added into each well of the 96 well plate. Each compound dilution is tested as quadruplicates. Wells containing untreated control cells are filled with 50 μl DMEM containing 1% DMSO. The cells are then incubated with the substances for 72 hours at 37° C. in a humidified atmosphere containing 5% carbon dioxide. To determine the viability of the cells, 10 μl of an Alamar Blue solution (Biosource) are added and the fluorescence is measured at an extinction of 544 nm and an emission of 590 nm. For the calculation of the cell viability the emission value from untreated cells is set as 100% viability and the emission rates of treated cells are set in relation to the values of untreated cells. Viabilities are expressed as % values. Viability is compared of proliferating cells grown in the absence of the inducer Ponasterone A, versus viability of cells arrested by the expression of ectopic p27Kip1 induced by Ponasterone A. The data of this experimental setting are summarized in table A (2nd column).

As to `CCOC(=O)N1CCc2c(sc(NC(=O)/C=C/c3c(F)cccc3F)c2C#N)C1` [Example 65, 3-Cyano-2-[(E)-3-(2,6-difluoro-phenyl)-allanoylamino]-4,7-dihydro-5H-thieno[2,3-c]pyridine-6-carboxylic acid ethyl ester], the IC50 (commonly the point on the concentration scale where inhibition reaches its midpoint) in experiment [1] is not above 2 µM; in experiment [2], not below 100 µM.

On to `CCOC(=O)N1CCc2c(sc(NC(=O)/C=C/c3ccc(C)cc3)c2C#N)C1` [Example 27, 3-Cyano-2-((E)-3-p-tolyl-allanoylamino)-4,7-dihydro-5H-thieno[2,3-c]pyridine-6-carboxylic acid ethyl ester], for which the values for the IC50 in experiment [1] and in experiment [2] were not above 2 µM and more than 100 µM, respectively.

In the case of `N#Cc1c(NC(=O)/C=C/c2ccccc2Cl)sc2c1CCN(C(=O)Cc1ccccn1)C2` [Example 212, (E)-3-(2-Chloro-phenyl)-N-[3-cyano-6-(2-pyridin-2-yl-ethanoyl)-4,5,6,7-tetrahydro-thieno[2,3-c]pyridin-2-yl]-acrylamide], the values for the IC50 in experiment [1] and in experiment [2] were not above 2 µM and not below 100 µM, respectively.

With `COC(=O)c1ccc(OC(=O)N2CCc3c(sc(NC(=O)/C=C/c4cccnc4)c3C#N)C2)cc1` [Example 151, 3-Cyano-2-((E)-3-pyridin-3-yl-allanoylamino)-4,7-dihydro-5H-thieno[2,3-c]pyridine-6-carboxylic acid 4-methoxycarbonyl-phenyl ester], the IC50 is not above 2 µM in experiment [1] and not below 100 µM in experiment [2].

In the case of `COc1cccc(CCOC(=O)N2CCc3c(sc(NC(=O)/C=C/c4cccnc4)c3C#N)C2)c1` [Example 152, 3-Cyano-2-((E)-3-pyridin-3-yl-allanoylamino)-4,7-dihydro-5H-thieno[2,3-c]pyridine-6-carboxylic acid 2-(3-methoxy-phenyl)-ethyl ester], the IC50 in experiment [1] is not above 2 µM; in experiment [2], not below 100 µM.

In the case of `CCOC(=O)N1CCc2c(sc(NC(=O)/C=C/c3ccccc3Oc3ccccc3)c2C#N)C1` [Example 104, 3-Cyano-2-[(E)-3-(2-phenoxy-phenyl)-allanoylamino]-4,7-dihydro-5H-thieno[2,3-c]pyridine-6-carboxylic acid ethyl ester], the results for the 50% inhibitory concentration (IC50) in experiment [1] and in experiment [2] were not above 2 µM and not below 100 µM, respectively.

In the case of `CCOC(=O)N1CCc2c(sc(NC(=O)/C=C/c3ccc4c(c3)OCO4)c2C#N)C1` [Example 30, 2-((E)-3-Benzo[1,3]dioxol-5-yl-allanoylamino)-3-cyano-4,7-dihydro-5H-thieno[2,3-c]pyridine-6-carboxylic acid ethyl ester], the results for the 50% inhibitory concentration (IC50) in experiment [1] and in experiment [2] were not above 2 µM and more than 100 µM, respectively.

On to `COc1cccc(COC(=O)N2CCc3c(sc(NC(=O)/C=C/c4cccnc4)c3C#N)C2)c1` [Example 147, 3-Cyano-2-((E)-3-pyridin-3-yl-allanoylamino)-4,7-dihydro-5H-thieno[2,3-c]pyridine-6-carboxylic acid 3-methoxy-benzyl ester], for which the half-maximal inhibitory concentration (IC50) in experiment [1] was not above 2 µM; in experiment [2], not below 100 µM.

For the molecule `COCC(=O)N1CCc2c(sc(NC(=O)/C=C/c3ccccc3OC)c2C#N)C1` [Example 210, (E)-N-[3-Cyano-6-(2-methoxy-ethanoyl)-4,5,6,7-tetrahydro-thieno[2,3-c]pyridin-2-yl]-3-(2-methoxy-phenyl)-acrylamide], the half-inhibitory concentration (IC50) in experiment [1] was not above 2 µM; in experiment [2], not below 100 µM.

For `N#Cc1c(NC(=O)/C=C/c2ccco2)sc2c1CCN(C(=O)Cc1ccccn1)C2` [Example 227, (E)-N-[3-Cyano-6-(2-pyridin-2-yl-ethanoyl)-4,5,6,7-tetrahydro-thieno[2,3-c]pyridin-2-yl]-3-furan-2-yl-acrylamide], the IC50 was not above 2 µM in experiment [1] and not below 100 µM in experiment [2].

On to `COc1ccc(OC(=O)N2CCc3c(sc(NC(=O)/C=C/c4cccnc4)c3C#N)C2)cc1` [Example 143, 3-Cyano-2-((E)-3-pyridin-3-yl-allanoylamino)-4,7-dihydro-5H-thieno[2,3-c]pyridine-6-carboxylic acid 4-methoxy-phenyl ester], for which the IC50 in experiment [1] was not above 2 µM; in experiment [2] it was not below 100 µM.

Consider `CCCOc1ccccc1/C=C/C(=O)Nc1sc2c(c1C#N)CCN(C(=O)OCC)C2` [Example 99, 3-Cyano-2-[(E)-3-(2-propoxy-phenyl)-allanoylamino]-4,7-dihydro-5H-thieno[2,3-c]pyridine-6-carboxylic acid ethyl ester], for which the half-inhibitory concentration (IC50) was not above 0.5 µM in experiment [1] and not below 50 µM in experiment [2].

For `CCOC(=O)N1CCc2c(sc(NC(=O)/C=C/c3cc(F)ccc3C)c2C#N)C1` [Example 79, 3-Cyano-2-[(E)-3-(5-fluoro-2-methyl-phenyl)-allanoylamino]-4,7-dihydro-5H-thieno[2,3-c]pyridine-6-carboxylic acid ethyl ester], the IC50 in experiment [1] was not above 2 µM; in experiment [2], not below 100 µM.

On to `N#Cc1c(NC(=O)/C=C/c2ccco2)sc2c1CCN(C(=O)CCc1cccnc1)C2` [Example 229, (E)-N-[3-Cyano-6-(3-pyridin-3-yl-propanoyl)-4,5,6,7-tetrahydro-thieno[2,3-c]pyridin-2-yl]-3-furan-2-yl-acrylamide], for which the IC50 was not above 2 µM in experiment [1] and not below 100 µM in experiment [2].

With `CCOc1ccccc1/C=C/C(=O)Nc1sc2c(c1C#N)CCN(C(=O)OCc1ccccn1)C2` [Example 236, 3-Cyano-2-[(E)-3-(2-ethoxy-phenyl)-allanoylamino]-4,7-dihydro-5H-thieno[2,3-c]pyridin-6-carboxylic acid pyridin-2-ylmethyl ester], the concentration for half-maximal inhibition (IC50) in experiment [1] is not above 2 µM; in experiment [2], not below 100 µM.

Take `CCOC(=O)N1CCc2c(sc(NC(=O)/C=C/c3nn(C)cc3Cl)c2C#N)C1` [Example 90, 2-[(E)-3-(4-Chloro-1-methyl-1H-pyrazol-3-yl)-allanoylamino]-3-cyano-4,7-dihydro-5H-thieno[2,3-c]pyridine-6-carboxylic acid ethyl ester]: the half-maximal inhibitory concentration (IC50) is not above 2 µM in experiment [1] and not below 100 µM in experiment [2].

For `CCOC(=O)N1CCc2c(sc(NC(=O)/C=C/c3c(OC)cccc3OC)c2C#N)C1` [Example 108, 3-Cyano-2-[(E)-3-(2,6-dimethoxy-phenyl)-allanoylamino]-4,7-dihydro-5H-thieno[2,3-c]pyridine-6-carboxylic acid ethyl ester], the IC50 in experiment [1] was not above 2 µM; in experiment [2], not below 100 µM.

With `N#Cc1c(NC(=O)/C=C/c2ccccc2)sc2c1CCN(C(=O)Cc1ccccn1)C2` [Example 174, (E)-N-[3-Cyano-6-(2-pyridin-2-yl-ethanoyl)-4,5,6,7-tetrahydro-thieno[2,3-c]pyridin-2-yl]-3-phenyl-acrylamide], the figures for the IC50 in experiment [1] and in experiment [2] were not above 2 µM and not below 100 µM, respectively.

Turning to `N#Cc1c(NC(=O)/C=C/c2cccnc2)sc2c1CCN(C(=O)OCCN1CCOCC1)C2` [Example 156, 3-Cyano-2-((E)-3-pyridin-3-yl-allanoylamino) 4,7-dihydro-5H-thieno[2,3-c]pyridine-6-carboxylic acid 2-morpholin-4-yl-ethyl ester], the IC50 in experiment [1] is not above 2 µM; in experiment [2], not below 100 µM.

As for `CC(=O)OCC(=O)N1CCc2c(sc(NC(=O)/C=C/c3ccccc3)c2C#N)C1` [Example 189, Acetic acid 2-[3-cyano-2-((E)-3-phenyl-allanoylamino)-4,7-dihydro-5H-thieno[2,3-c]pyridin-6-yl]-2-oxo-ethyl ester], the IC50 in experiment [1] is not above 2 µM; in experiment [2], not below 100 µM.
